Paper PMC8004985, “Affinity Purification of Angiotensin Converting Enzyme Inhibitory Peptides from Wakame (Undaria Pinnatifida) Using Immobilized ACE on Magnetic Metal Organic Frameworks” (Marine Drugs, 2021)
Where two headings read alike, the source gives them in different places. One block for each compound: values may come before it. Residues, ends and D or L forms follow the SMILES beside them.

Columns and labels:
ACE [1] = conditions: cited from earlier work
From the text: Table 1 The summary of ACE inhibitory peptides by conventional approach and affinity purification on different medium. | column: IC50 || Table 2 The summary of ACE inhibitory peptides have similar structure with purified peptides KNFL from food protein. | column: IC50 (μM) || Researchers have investigated the structure-activity relationship of ACE inhibitor peptides, such as the peptide chain length, amino acid sequence, C- terminal, and N-terminal amino acid sequence. Most of the ACE inhibitors are reported to have small molecular weights (2–12 amino acids), and there are four amino acids in the newly identified peptide KNFL. […] In this study, the C-terminal amino acids (phenylalanine and leucine) of the KNFL peptide have stro ...

ACE [2] = conditions: cited from earlier work; remark: listed apart in the source
From the text: ACE inhibitor peptides have been reported with competitive, noncompetitive, uncompetitive, and mixed modes of interaction. The kinetic constants were estimated by using nonlinear regression analysis (SPSS, version 26.0, Inc., Chicago, IL, USA) and the nonlinear fitting plots were shown in Figure 8. […] Mixed-type inhibitors interact with the non-catalytic site of the e ...

ACE [3] = biological target: T1, ACE (Oryctolagus cuniculus, UniProt P12822); experiment: Inhibition pattern / kinetics of ACE in presence of KNFL; type: biochemical, rabbit; conditions: for Vmax: nonlinear regression, control 55.492
T1 construct: Angiotensin I-converting enzyme (ACE, EC3.4.15.1) from rabbit lung; purchased Sigma-Aldrich Co. (St. Louis, MO, USA); host or cells: rabbit lung (tissue-derived)
T1 sequence (P12822 34-1310): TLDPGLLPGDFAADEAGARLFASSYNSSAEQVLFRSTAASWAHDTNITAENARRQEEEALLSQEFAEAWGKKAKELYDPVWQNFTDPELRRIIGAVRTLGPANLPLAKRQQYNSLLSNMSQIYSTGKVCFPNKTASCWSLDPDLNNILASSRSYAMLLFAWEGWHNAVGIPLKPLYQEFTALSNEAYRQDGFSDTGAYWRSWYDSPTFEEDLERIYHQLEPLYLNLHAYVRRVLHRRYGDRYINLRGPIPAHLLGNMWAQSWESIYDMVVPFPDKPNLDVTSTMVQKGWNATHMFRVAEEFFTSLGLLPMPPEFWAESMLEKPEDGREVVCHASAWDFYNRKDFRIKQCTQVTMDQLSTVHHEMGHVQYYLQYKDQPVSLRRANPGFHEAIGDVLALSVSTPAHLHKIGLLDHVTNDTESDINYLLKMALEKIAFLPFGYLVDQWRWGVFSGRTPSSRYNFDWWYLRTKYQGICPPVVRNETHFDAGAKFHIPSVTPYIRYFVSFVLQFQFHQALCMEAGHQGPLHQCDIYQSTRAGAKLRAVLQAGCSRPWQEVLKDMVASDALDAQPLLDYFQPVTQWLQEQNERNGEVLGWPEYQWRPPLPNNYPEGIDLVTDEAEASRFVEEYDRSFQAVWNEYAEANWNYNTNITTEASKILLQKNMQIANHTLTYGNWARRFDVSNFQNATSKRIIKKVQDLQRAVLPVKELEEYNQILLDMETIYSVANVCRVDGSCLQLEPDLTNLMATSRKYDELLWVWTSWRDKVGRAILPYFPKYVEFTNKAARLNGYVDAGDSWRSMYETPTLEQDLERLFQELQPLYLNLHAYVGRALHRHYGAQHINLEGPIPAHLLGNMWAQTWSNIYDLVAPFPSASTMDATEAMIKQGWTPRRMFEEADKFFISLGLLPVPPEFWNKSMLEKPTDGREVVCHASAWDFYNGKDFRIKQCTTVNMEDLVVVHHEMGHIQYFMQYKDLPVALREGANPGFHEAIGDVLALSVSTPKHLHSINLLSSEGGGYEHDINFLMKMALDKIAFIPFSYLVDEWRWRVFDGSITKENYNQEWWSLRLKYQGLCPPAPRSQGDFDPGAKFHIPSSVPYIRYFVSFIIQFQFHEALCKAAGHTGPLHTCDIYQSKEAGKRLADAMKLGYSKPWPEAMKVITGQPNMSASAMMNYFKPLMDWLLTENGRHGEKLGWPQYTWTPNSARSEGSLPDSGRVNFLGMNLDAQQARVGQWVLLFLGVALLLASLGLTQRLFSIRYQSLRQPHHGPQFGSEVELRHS
From the text: ACE inhibitor peptides have been reported with competitive, noncompetitive, uncompetitive, and mixed modes of interaction. The kinetic constants were estimated by using nonlinear regression analysis (SPSS, version 26.0, Inc., Chicago, IL, USA) and the nonlinear fitting plots were shown in Figure 8. […] Mixed-type inhibitors interact with the non-catalytic site of the enzyme and combine with the enzyme to produce an ACE–HHL(Hip-His-Leu) peptide complex which might leads to conformational changes and a decrease in substrate affinity at the active site resulting in loss of activity. A great many of ACE inhibitor peptides acted in a mixed-type manner. For example, the MAINPSKENLCSTFCK peptide produced from casein hydrolysates, and EVSQGRP, VSRHFASYAN and SAAVGSP generated from Stichopus horrens.
Angiotensin I-converting enzyme (ACE, EC3.4.15.1) from rabbit lung, HHL (Hippuryl-L-histidyl-L-leucine), were obtained from Sigma-Aldrich Co. (St. Louis, MO, USA). The ACE inhibitor KNFL (Lys-Asn-Phe-Leu) was supplied by GL Biochem Ltd. (Shanghai, China). Iron chloride hexahydrate (FeCl3·6H2O), ethylene glycol (EG), diethylene glycol (DEG), sodium acetate anhydrous (NaAc), and zinc acetate dehydrate Zn(CH3COO)2·2H2O were all obtained from Sinopharm Chemical Reagent Co., Ltd. (Shanghai, China). Polyacrylic acid (PAA), imidazolate-2-carboxyaldehyde (2-ICA, 98 %), sodium acrylate (NaAA) were purchased from Macklin Biochemical Co., Ltd (Shanghai, China). The other chemicals and reagents used were of AR grade and used without further purification.
ACE activity was evaluated by measuring the amount of hippuric acid (HA). The assay mixture (0.3 mL) consisted of 130 µL BBS buffer pH 8.3 ([…], containing 0.3 M NaCl), 40 µL HHL (5 mM), and different amounts of the free and immobilized ACE. Incubation was carried out at 37 °C for 10 min and was terminated by addition of HCl (0.1 mL, 1 M). The HA content of the mixture was determined by RP-HPLC (Agilent 1260) at 228 nm with a DAD detector. One unit of ACE enzyme activity (U) was defined as the amount of enzyme catalyzing HHL to generate 1 µM of HA per minute under the experimental conditions.

[4] = amino acid residue; source not given; cited from earlier work
[5] = synthetic ACE inhibitors in hypertension treatment; ref [1]; cited from earlier work
From the text: As a zinc-dependent carboxypeptidase, angiotensin-I-converting enzyme (ACE EC 3.4.15.1) is prolific in biological tissues and blood, and plays an important role in modulating blood pressure. ACE cannot only convert angiotensin I to angiotensin II (a potent vasoconstrictor), but it can also degrade the vasodilator bradykinin [2]. ACE inhibitors are, thus, a class of drugs frequently used in the treatment of hypertension. Synthetic ACE inhibitors, including captopril, benazepril, enalapril, and perindopril are associated with various side effects, such as cough, taste disturbances, aller ...

[6] = Volutharpa ampullaceal perryi, affinity purification/ Zn-SBA-15-ACE, ref [12]
[7] = generated from Stichopus horrens, ref [51]
[8] = Wakame, conventional approach, ref [28]
[9] = in the presence of KNFL (192 and 384 µM)

Compound: IVTNWDDMGK
IC50 (ACE [1]; [6]): 2080 µM

Compound: EVSQGRP [peptide generated from Stichopus horrens]
inhibition mode (ACE [2]; [7]): mixed-type

Compound: KFYG
IC50 (ACE [1]; [8]): 90.5 µM

Vmax (ACE [3]; KNFL at 192 µM): 45.958 µM/L·min
Vmax (ACE [3]; KNFL at 384 µM): 24.105 µM/L·min
inhibition pattern (ACE [3]; b33/b37: nonlinear regression, b1: Lineweaver–Burk analysis): mixed-type inhibition
effect on Km (ACE [3]; [9]): increased
effect on Vmax (ACE [3]; [9]): decreased in a dose-dependent pattern
Compound: CC(C)C[C@H](NC(=O)[C@H](Cc1ccccc1)NC(=O)[C@H](CC(N)=O)NC(=O)[C@@H](N)CCCCN)C(=O)O [KNFL, Lys-Asn-Phe-Leu] (H-KNFL-OH; N-terminus and C-terminus assumed)

Compound: YKYY
IC50 (ACE [1]; [8]): 64.2 µM

Compound: MAINPSKENLCSTFCK [peptide produced from casein hydrolysates]
inhibition mode (ACE [2]; produced from casein hydrolysates, ref [50]): mixed-type

Compound: YNKL
IC50 (ACE [1]; [8]): 21 µM

Compound: HLHT
IC50 (ACE [1]; Pinctada fucata martensii, affinity purification/ IMAM @ mPEG, ref [10]): 458.1 ± 3.24 µM

Compound: SAAVGSP [peptide generated from Stichopus horrens]
inhibition mode (ACE [2]; [7]): mixed-type

Compound: N=C(N)NCCC[C@H](N)C(=O)O [arginine]
Lipophilicity Parameters [4]: −4.5

Compound: CCOC(=O)[C@H](CCc1ccccc1)N[C@H]1CCc2ccccc2N(CC(=O)O)C1=O [benazepril]
side effects [5]: cough, taste disturbances, allergic reactions, and skin rashes

Compound: WYLHYA
IC50 (ACE [1]; casein, affinity purification/ IMAC-Ni^2+, ref [41]): 16.2 µM

Compound: CC(C)C[C@H](N)C(=O)O [leucine]
Lipophilicity Parameters [4]: 3.8

Compound: VSRHFASYAN [peptide generated from Stichopus horrens]
inhibition mode (ACE [2]; [7]): mixed-type

Compound: GMKCAF
IC50 (ACE [1]; lizard fish, affinity purification/ Magnetic agarose-ACE, ref [6]): 45.7 ± 1.1 µM

Compound: VGPAGRRG
IC50 (ACE [1]; [6]): 4660 µM

Compound: N[C@@H](CC(=O)O)C(=O)O [aspartic acid]
Lipophilicity Parameters [4]: −3.5

Compound: C[C@H](CS)C(=O)N1CCC[C@H]1C(=O)O [captopril]
side effects [5]: cough, taste disturbances, allergic reactions, and skin rashes

Compound: NC(=O)C[C@H](N)C(=O)O [asparagine]
Lipophilicity Parameters [4]: −3.5

Compound: RVCLP
IC50 (ACE [1]; lizard fish, conventional approach, ref [29]): 175 µM

Compound: N[C@@H](CO)C(=O)O [serine]
Lipophilicity Parameters [4]: −0.8

Compound: NC(=O)CC[C@H](N)C(=O)O [glutamine]
Lipophilicity Parameters [4]: −3.5

Compound: CCOC(=O)[C@H](CCc1ccccc1)N[C@@H](C)C(=O)N1CCC[C@H]1C(=O)O [enalapril]
side effects [5]: cough, taste disturbances, allergic reactions, and skin rashes

Compound: RYRP
IC50 (ACE [1]; lizard fish, affinity purification/ IMAC-Ni^2+, ref [39]): 52 µM

Compound: N[C@@H](Cc1c[nH]cn1)C(=O)O [histidine]
Lipophilicity Parameters [4]: −3.2

Compound: LLYQEPVLGPVR
IC50 (ACE [1]; casein, affinity purification/ IMAM @ mPEG, ref [9]): 274 ± 5 µM

Compound: NCCCC[C@H](N)C(=O)O [lysine]
Lipophilicity Parameters [4]: −3.9

Compound: N[C@@H](CCC(=O)O)C(=O)O [glutamic acid]
Lipophilicity Parameters [4]: −3.5

Compound: CCC[C@H](N[C@@H](C)C(=O)N1[C@H](C(=O)O)C[C@@H]2CCCC[C@@H]21)C(=O)OCC [perindopril]
side effects [5]: cough, taste disturbances, allergic reactions, and skin rashes

Compound: AIYK
IC50 (ACE [1]; [8]): 213 µM

Compound: KNGDGY
IC50 (ACE [1]; Cuttlefish, ref [49]): 51.6 µM
